Measured values taken from PubChem BioAssay AID2060605 (Molecular Pharmacology Branch, DTP, NCI, 2025).

Test system: 947758-054-R-J2-PDC spheroid growth, percent test/control
Assay: Anticancer human tumor 947758-054-R-J2-PDC patient-derived colon adenocarcinoma cell line growth inhibition [CLK]
Details: spheroids with HUVEC and MSC; for IC50: curve of first compound; for viability, T/C: stronger effect = lower value
Outline: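 Multi-cell-type spheroids combined patient-derived tumor cells with HUVEC endothelial cells and human mesenchymal stem cells. Paired agents were dosed in half-log steps down from about clinical Cmax, or from 10 microM where Cmax was unknown.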
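Further: spheroids exposed to compounds for one week before readout.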
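Wherever viability, T/C is given: 100% = DMSO vehicle control wells.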

Which IC50 (second compound 0.0316 µM) does the source give for `CC(C)CC(NC(=O)C(Cc1ccccc1)NC(=O)c1cnccn1)B(O)O` (configuration not stated) + CN1CCN(c2cc(C(=O)Nc3cc4cc(-c5cnn(C)c5)ccc4cn3)ccn2)CC1 here?
The IC50 was 1.92 nM.

What about the IC50 (second compound 0.1 µM) of the same compound?
Its IC50 is 2.41 nM.

What about the IC50 (second compound 0.316 µM) of the same compound?
The IC50 was less than 0.949 nM.

What about the IC50 (second compound 1 µM) of the same compound?
Its IC50 is less than 0.949 nM.

What about the IC50 (second compound 3.16 µM) of the same compound?
The IC50 was less than 0.949 nM.

What about the IC50 (second compound 10 µM) of the same compound?
The IC50 was less than 0.949 nM.

What about the viability, T/C (second compound 0.0316 µM, first compound 0.000949 µM) of the same compound?
Its viability, T/C is 121%.

And the viability, T/C (second compound 0.0316 µM, first compound 0.003 µM)?
Its viability, T/C is 5.43%.

What about the viability, T/C (second compound 0.0316 µM, first compound 0.00949 µM) of the same compound?
The viability, T/C was 0.78%.

And the viability, T/C (second compound 0.0316 µM, first compound 0.03 µM)?
Its viability, T/C is 0.27%.

And the viability, T/C (second compound 0.0316 µM, first compound 0.0949 µM)?
The viability, T/C was 0.29%.

What about the viability, T/C (second compound 0.0316 µM, first compound 0.3 µM) of the same compound?
Its viability, T/C is 0.27%.

What about the viability, T/C (second compound 0.1 µM, first compound 0.000949 µM) of the same compound?
The viability, T/C was 229%.

And the viability, T/C (second compound 0.1 µM, first compound 0.003 µM)?
Its viability, T/C is 7.59%.

And the viability, T/C (second compound 0.1 µM, first compound 0.00949 µM)?
Its viability, T/C is 0.31%.

What about the viability, T/C (second compound 0.1 µM, first compound 0.03 µM) of the same compound?
Its viability, T/C is 0.29%.

And the viability, T/C (second compound 0.1 µM, first compound 0.0949 µM)?
Its viability, T/C is 0.32%.

What about the viability, T/C (second compound 0.1 µM, first compound 0.3 µM) of the same compound?
Its viability, T/C is 0.3%.

And the viability, T/C (second compound 0.316 µM, first compound 0.000949 µM)?
The viability, T/C was 1.38%.

And the viability, T/C (second compound 0.316 µM, first compound 0.003 µM)?
The viability, T/C was 0.21%.

And the viability, T/C (second compound 0.316 µM, first compound 0.00949 µM)?
The viability, T/C was 0.22%.

And the viability, T/C (second compound 0.316 µM, first compound 0.03 µM)?
Its viability, T/C is 0.22%.

And the viability, T/C (second compound 0.316 µM, first compound 0.0949 µM)?
The viability, T/C was 0.2%.

And the viability, T/C (second compound 0.316 µM, first compound 0.3 µM)?
Its viability, T/C is 0.23%.

What about the viability, T/C (second compound 1 µM, first compound 0.000949 µM) of the same compound?
The viability, T/C was 0.14%.

What about the viability, T/C (second compound 1 µM, first compound 0.003 µM) of the same compound?
The viability, T/C was 0.15%.

What about the viability, T/C (second compound 1 µM, first compound 0.00949 µM) of the same compound?
Its viability, T/C is 0.15%.

And the viability, T/C (second compound 1 µM, first compound 0.03 µM)?
Its viability, T/C is 0.16%.

And the viability, T/C (second compound 1 µM, first compound 0.0949 µM)?
The viability, T/C was 0.18%.

What about the viability, T/C (second compound 1 µM, first compound 0.3 µM) of the same compound?
The viability, T/C was 0.15%.

What about the viability, T/C (second compound 3.16 µM, first compound 0.000949 µM) of the same compound?
Its viability, T/C is 0.21%.

And the viability, T/C (second compound 3.16 µM, first compound 0.003 µM)?
The viability, T/C was 0.12%.

And the viability, T/C (second compound 3.16 µM, first compound 0.00949 µM)?
Its viability, T/C is 0.12%.

And the viability, T/C (second compound 3.16 µM, first compound 0.03 µM)?
Its viability, T/C is 0.13%.

And the viability, T/C (second compound 3.16 µM, first compound 0.0949 µM)?
Its viability, T/C is 0.21%.

And the viability, T/C (second compound 3.16 µM, first compound 0.3 µM)?
The viability, T/C was 2.33%.

And the viability, T/C (second compound 10 µM, first compound 0.000949 µM)?
Its viability, T/C is 0.34%.

And the viability, T/C (second compound 10 µM, first compound 0.003 µM)?
Its viability, T/C is 0.18%.

What about the viability, T/C (second compound 10 µM, first compound 0.00949 µM) of the same compound?
Its viability, T/C is 1.25%.

And the viability, T/C (second compound 10 µM, first compound 0.03 µM)?
The viability, T/C was 0.16%.

What about the viability, T/C (second compound 10 µM, first compound 0.0949 µM) of the same compound?
The viability, T/C was 0.21%.

What about the viability, T/C (second compound 10 µM, first compound 0.3 µM) of the same compound?
Its viability, T/C is 1.68%.
